From ChEMBL document CHEMBL1146892, “Pyrrolidine bis-cyclic guanidines with antimicrobial activity against drug-resistant Gram-positive pathogens identified from a mixture-based combinatorial library” (2006)
≈ marks a conversion by molar mass, not a printed value.

Columns and labels:
Assay type in all cases: functional
Enterococcus faecalis = experiment: Antibacterial activity against vancomycin-resistant Enterococcus faecalis ATCC 51299
Staphylococcus aureus = experiment: Antibacterial activity against methicillin-resistant Staphylococcus aureus ATCC 33591
Escherichia coli = experiment: Antibacterial activity against Escherichia coli ATCC 25922

| Structure (SMILES) | MBC (Enterococcus faecalis) [µg/mL] | MIC (Enterococcus faecalis) [µg/mL] | MBC (Staphylococcus aureus) [µg/mL] | MIC (Staphylococcus aureus) [µg/mL] | MBC (Escherichia coli) [µg/mL] | MIC (Escherichia coli) [µg/mL] |
| --- | --- | --- | --- | --- | --- | --- |
| C[C@H]1CN=C(N)N1CC1CCCN1C[C@@H](CC1CCCCC1)N1C[C@@H](CC2CCCCC2)N(CCc2cc(C(F)(F)F)cc(C(F)(F)F)c2)C1=N (some centres not stated) | > 10 | < 2.5 | 2.5 (≈ 3.44 µM) | < 2.5 | 5 (≈ 6.89 µM) | 5 (≈ 6.89 µM) |
| N=C1N(CCc2cc(C(F)(F)F)cc(C(F)(F)F)c2)[C@H](CC2CCCCC2)CN1[C@H](CC1CCCCC1)CN1CCCC1CN1C(N)=NC[C@@H]1Cc1ccccc1 (some centres not stated) | 2.5 (≈ 3.12 µM) | 2.5 (≈ 3.12 µM) | < 2.5 | < 2.5 | > 10 | > 10 |
| CCCC[C@@H]1CN([C@H](Cc2ccc3ccccc3c2)CN2CCCC2CN2C(N)=NC[C@@H]2C)C(=N)N1CCc1cc(C(F)(F)F)cc(C(F)(F)F)c1 (some centres not stated) | > 10 | < 2.5 | 2.5 (≈ 3.43 µM) | < 2.5 | > 10 | > 10 |
| CC(C)Cc1ccc(C(C)CN2C(=N)N([C@@H](CC3CCCCC3)CN3CCCC3CN3C(N)=NC[C@@H]3Cc3ccccc3)C[C@@H]2CC2CCCCC2)cc1 (some centres not stated) | < 2.5 | < 2.5 | < 2.5 | < 2.5 | > 10 | > 10 |
| CC(C)Cc1ccc(C(C)CN2C(=N)N([C@@H](CC3CCCCC3)CN3CCCC3CN3C(N)=NC[C@@H]3Cc3ccccc3)C[C@H]2CC2CCCCC2)cc1 (some centres not stated) | < 2.5 | < 2.5 | < 2.5 | < 2.5 | > 10 | > 10 |
| CC(C)Cc1ccc(C(C)CN2C(=N)N([C@H](Cc3ccc4ccccc4c3)CN3CCCC3CN3C(N)=NC[C@@H]3C)C[C@H]2CC2CCCCC2)cc1 (some centres not stated) | < 2.5 | < 2.5 | < 2.5 | < 2.5 | > 10 | > 10 |
| C[C@H]1CN=C(N)N1CC1CCCN1C[C@@H](CC1CCCCC1)N1C[C@H](CC2CCCCC2)N(CCc2cc(C(F)(F)F)cc(C(F)(F)F)c2)C1=N (some centres not stated) | 2.5 (≈ 3.44 µM) | < 2.5 | 2.5 (≈ 3.44 µM) | < 2.5 | 5 (≈ 6.89 µM) | 5 (≈ 6.89 µM) |
| CCCC[C@@H]1CN([C@H](Cc2ccc3ccccc3c2)CN2CCCC2CN2C(N)=NC[C@@H]2C)C(=N)N1CC(C)c1ccc(CC(C)C)cc1 (some centres not stated) | 2 (≈ 3.01 µM) | < 2.5 | 2.5 (≈ 3.77 µM) | 2.5 (≈ 3.77 µM) | 5 (≈ 7.53 µM) | 5 (≈ 7.53 µM) |
| C[C@H]1CN=C(N)N1CC1CCCN1C[C@@H](Cc1ccc2ccccc2c1)N1C[C@@H](CC2CCCCC2)N(CCc2cc(C(F)(F)F)cc(C(F)(F)F)c2)C1=N (some centres not stated) | < 2.5 | < 2.5 | < 2.5 | < 2.5 | > 10 | > 10 |
| CCCC[C@@H]1CN([C@H](Cc2ccc3ccccc3c2)CN2CCCC2CN2C(N)=NC[C@@H]2Cc2ccccc2)C(=N)N1CCc1cc(C(F)(F)F)cc(C(F)(F)F)c1 (some centres not stated) | > 10 | < 2.5 | < 2.5 | < 2.5 | > 10 | > 10 |
| CCCC[C@@H]1CN([C@@H](CC2CCCCC2)CN2CCCC2CN2C(N)=NC[C@@H]2C)C(=N)N1CC(C)c1ccc(CC(C)C)cc1 (some centres not stated) | > 10 | < 2.5 | 2.5 (≈ 4.03 µM) | 2.5 (≈ 4.03 µM) | > 10 | > 10 |
| N=C1N(CCc2cc(C(F)(F)F)cc(C(F)(F)F)c2)[C@@H](CC2CCCCC2)CN1[C@H](Cc1ccc2ccccc2c1)CN1CCCC1CN1C(N)=NC[C@@H]1Cc1ccccc1 (some centres not stated) | < 2.5 | < 2.5 | < 2.5 | < 2.5 | > 10 | > 10 |
| CCCC[C@@H]1CN([C@H](CC2CCCCC2)CN2CCCC2CN2C(N)=NC[C@@H]2Cc2ccccc2)C(=N)N1CC(C)c1ccc(CC(C)C)cc1 (some centres not stated) | < 2.5 | < 2.5 | < 2.5 | < 2.5 | > 10 | > 10 |
| CCCC[C@@H]1CN([C@@H](CC2CCCCC2)CN2CCCC2CN2C(N)=NC[C@@H]2Cc2ccccc2)C(=N)N1CCc1cc(C(F)(F)F)cc(C(F)(F)F)c1 (some centres not stated) | < 2.5 | < 2.5 | < 2.5 | < 2.5 | > 10 | > 10 |
| CCCC[C@@H]1CN([C@H](CC2CCCCC2)CN2CCCC2CN2C(N)=NC[C@@H]2C)C(=N)N1CCc1cc(C(F)(F)F)cc(C(F)(F)F)c1 (some centres not stated) | > 10 | > 10 | < 2.5 | < 2.5 | > 10 | > 10 |
| CCCC[C@@H]1CN([C@H](CC2CCCCC2)CN2CCCC2CN2C(N)=NC[C@@H]2Cc2ccccc2)C(=N)N1CCc1cc(C(F)(F)F)cc(C(F)(F)F)c1 (some centres not stated) | < 2.5 | < 2.5 | 2.5 (≈ 3.28 µM) | < 2.5 | 5 (≈ 6.56 µM) | 5 (≈ 6.56 µM) |
| CCCC[C@@H]1CN([C@H](Cc2ccc3ccccc3c2)CN2CCCC2CN2C(N)=NC[C@@H]2Cc2ccccc2)C(=N)N1CC(C)c1ccc(CC(C)C)cc1 (some centres not stated) | > 10 | < 2.5 | 2.5 (≈ 3.38 µM) | < 2.5 | > 10 | > 10 |
| CC(C)Cc1ccc(C(C)CN2C(=N)N([C@H](CC3CCCCC3)CN3CCCC3CN3C(N)=NC[C@@H]3Cc3ccccc3)C[C@@H]2CC2CCCCC2)cc1 (some centres not stated) | > 10 | < 2.5 | 2.5 (≈ 3.4 µM) | < 2.5 | > 10 | > 10 |
| CC(C)Cc1ccc(C(C)CN2C(=N)N([C@H](Cc3ccc4ccccc4c3)CN3CCCC3CN3C(N)=NC[C@@H]3C)C[C@@H]2CC2CCCCC2)cc1 (some centres not stated) | 2.5 (≈ 3.55 µM) | > 10 | 2.5 (≈ 3.55 µM) | 2.5 (≈ 3.55 µM) | > 10 | > 10 |
| N=C1N(CCc2cc(C(F)(F)F)cc(C(F)(F)F)c2)[C@H](CC2CCCCC2)CN1[C@@H](CC1CCCCC1)CN1CCCC1CN1C(N)=NC[C@@H]1Cc1ccccc1 (some centres not stated) | < 2.5 | < 2.5 | < 2.5 | < 2.5 | 5 (≈ 6.23 µM) | 5 (≈ 6.23 µM) |
| CCCC[C@@H]1CN([C@@H](CC2CCCCC2)CN2CCCC2CN2C(N)=NC[C@@H]2C)C(=N)N1CCc1cc(C(F)(F)F)cc(C(F)(F)F)c1 (some centres not stated) | > 10 | > 10 | 2.5 (≈ 3.65 µM) | 2.5 (≈ 3.65 µM) | > 10 | > 10 |
| CC(C)Cc1ccc(C(C)CN2C(=N)N([C@@H](CC3CCCCC3)CN3CCCC3CN3C(N)=NC[C@@H]3C)C[C@H]2CC2CCCCC2)cc1 (some centres not stated) | > 10 | < 2.5 | < 2.5 | < 2.5 | > 10 | > 10 |
| N=C1N(CCc2cc(C(F)(F)F)cc(C(F)(F)F)c2)[C@@H](CC2CCCCC2)CN1[C@H](CC1CCCCC1)CN1CCCC1CN1C(N)=NC[C@@H]1Cc1ccccc1 (some centres not stated) | > 10 | 2.5 (≈ 3.12 µM) | < 2.5 | < 2.5 | > 10 | > 10 |
| CC(C)Cc1ccc(C(C)CN2C(=N)N([C@H](Cc3ccc4ccccc4c3)CN3CCCC3CN3C(N)=NC[C@@H]3Cc3ccccc3)C[C@@H]2CC2CCCCC2)cc1 (some centres not stated) | > 10 | < 2.5 | < 2.5 | < 2.5 | > 10 | > 10 |
| CC(C)Cc1ccc(C(C)CN2C(=N)N([C@H](CC3CCCCC3)CN3CCCC3CN3C(N)=NC[C@@H]3C)C[C@H]2CC2CCCCC2)cc1 (some centres not stated) | < 2.5 | < 2.5 | 2.5 (≈ 3.79 µM) | < 2.5 | 5 (≈ 7.58 µM) | 5 (≈ 7.58 µM) |
| C[C@H]1CN=C(N)N1CC1CCCN1C[C@H](CC1CCCCC1)N1C[C@@H](CC2CCCCC2)N(CCc2cc(C(F)(F)F)cc(C(F)(F)F)c2)C1=N (some centres not stated) | > 10 | < 2.5 | < 2.5 | < 2.5 | > 10 | > 10 |
| CCCC[C@@H]1CN([C@@H](CC2CCCCC2)CN2CCCC2CN2C(N)=NC[C@@H]2Cc2ccccc2)C(=N)N1CC(C)c1ccc(CC(C)C)cc1 (some centres not stated) | < 2.5 | < 2.5 | 2.5 (≈ 3.59 µM) | < 2.5 | > 10 | > 10 |
